This is an account of results in ChEMBL document CHEMBL6096723, “Discovery of novel capsaicin analogs as TRPV1 inhibitors for the treatment of idiopathic pulmonary fibrosis” (Eur J Med Chem, 2025).

The subject of series [1] is NIH3T3. As to the kind of experiment: Anti-fibrotic activity in mouse NIH3T3 cells assessed as inhibition of TGFbeta-induced total collagen production at 10 uM measured after 48 hrs by Sirius Red Collagen Detection Kit relative to control. The format is functional.
Series [2] in a line: Cytotoxicity against mouse NIH3T3 cells assessed as survival rate at 10 uM measured after 24 hrs by CCK-8 assay relative to control. It is filed as toxicity, cell-based. Conditions: read-out: Survival.
Series [3] deals with NIH3T3. The experiment in a line: Inhibition of TGFbeta1-induced proliferation of mouse NIH3T3 cells assessed as colony formation at 10 uM measured after 7 to 14 days by Crystal violet staining based assay. It is filed as functional, cell-based. Conditions: time 7-14 day.
For series [4], the system named is NIH3T3. As to the kind of experiment: Anti-fibrotic activity in mouse NIH3T3 cells assessed as inhibition of TGFbeta-induced total collagen production measured after 48 hrs by Sirius Red Collagen Detection Kit relative to control. The format is functional, cell-based. Conditions: NIH3T3, 48 h.
The next series relates to L929. The experiment in a line: Anti-migratory activity in mouse L929 cells assessed as inhibition of TGFbeta1-induced migration at 10 uM measured after 24 hrs by Wound healing assay. The format is functional, cell-based.

pIC50: −log10 of the molar value. The source made the active and inactive calls. The rule behind the calls is not given here.

The inhibition is the drop in the measured response relative to a control, in per cent. `CC(=O)Oc1ccc(CNC(=O)CC(C)C)cc1OC(C)=O`: in the series on NIH3T3 [1], the inhibition at 10 µM is 11.2%. Further, the viability at 24 h, 10 µM in series [2] came out at 124%.
In the case of `CCCCCCCC(=O)NCc1ccc(OC)c(OC)c1`, in the series with NIH3T3 [1], the inhibition at 10 µM came out at 11.6%. Moreover, the viability at 24 h, 10 µM in series [2] is 103%.
The term pIC50 denotes −log10 of the IC50, conventionally taken in molar units. Take `COc1ccc(CCC(=O)CCCCc2cccc(O)c2)cc1`: the inhibition result in the series with NIH3T3 [3] is “Active”. Besides, in the series with NIH3T3 [1], the inhibition at 10 µM amounted to 67.6%. Also, the pIC50 with NIH3T3 [4] is 5.68. The viability at 24 h, 10 µM in series [2] was determined as 91.1%.
For the molecule `COc1ccc(OC)c(CCCCC(=O)CCc2ccc(OC)c(O)c2)c1`, in the series on NIH3T3 [1], the inhibition at 10 µM worked out at 59.2%. For the same molecule, the viability at 24 h, 10 µM in series [2] stood at 96.8%.
The like results for `CC(=O)Oc1ccc(CCC(CCCCc2ccccc2)OC(C)=O)cc1OC(C)=O` (configuration not stated) were, in that order, 51.9% and 111%.
In the same order, the values of `C(=C\C=C\c1ccccc1)/C=C/Cc1ccccc1` are 57.5% and -2.34%.
In the same order, the values of `COc1ccc(CCC(=O)CCCCc2cccc(O)c2)cc1O` are 60.6% and 95.7%.
With `O=C(CCCCc1ccccc1)CCc1ccccc1`, in the series with NIH3T3 [1], the inhibition at 10 µM is 58.8%. The viability at 24 h, 10 µM in series [2] worked out at 94.1%.
The like results for `COC(/C=C/C=C/c1ccccc1)CCc1ccc(O)cc1` (configuration not stated) were, in that order, 57.7% and 111%.
As to `COc1cc(/C=C/C(=O)CC(O)/C=C/c2ccc(O)c(OC)c2)ccc1O` (configuration not stated), in the series on NIH3T3 [1], the inhibition at 10 µM came to 19.4%. In addition, the viability at 24 h, 10 µM in series [2] was 85%.
In the same order, the values of `COc1ccc(CNC(=O)CCCCc2ccccc2)cc1OC` are -9.64% and 91.2%.
In the same order, the values of `CCCCCCCCC(=O)NCc1ccc(O)c(O)c1` are 61.4% and 90.5%.
Regarding `COc1cc(CNC(=O)CCCC/C=C/C(C)C)ccc1O` [CAPSAICIN], the inhibition at 10 µM in the series on NIH3T3 [1] was 35.3%. For the same molecule, the viability at 24 h, 10 µM in series [2] worked out at 98.6%.
As to `CCCCCC(=O)NCc1ccc(OC)c(OC)c1`, in the series on NIH3T3 [1], the inhibition at 10 µM was -9.02%. Moreover, the viability at 24 h, 10 µM in series [2] came out at 85.8%.
In the same order, the values of `OC(CCc1ccccc1)CC(O)CCc1ccccc1` (configuration not stated) are 46.9% and 101%.
`O=C(/C=C/c1ccc(O)cc1)CC(O)/C=C/c1ccc(O)cc1` (configuration not stated): the outcome in the series with L929 was Active. Also, in the series on NIH3T3 [1], the inhibition at 10 µM stood at 72.8%. The pIC50 in the series with NIH3T3 [4] was 5.32. Besides, in series [2], the viability at 24 h, 10 µM worked out at 101%.
Consider `O=C(CC/C=C/c1ccccc1)CCc1ccc(O)cc1`, for which the inhibition at 10 µM with NIH3T3 [1] came out at 40.1%. The viability at 24 h, 10 µM in series [2] is -3.97%.
The like results for `CCCCCCCCCC(=O)NCc1ccc(O)c(O)c1` were, in that order, 64.8% and 121%.
The like results for `CCCCCCCCC(=O)NCc1ccc(OC(C)=O)c(OC(C)=O)c1` were, in that order, 66% and 137%.
In the same order, the values of `CCCCC(=O)NCc1ccc(OC(C)=O)c(OC(C)=O)c1` are 53% and 131%.
Turning to `O=C(CCCCc1ccccc1)CCc1ccc(O)cc1`, the inhibition at 10 µM in the series with NIH3T3 [1] came out at 49.7%. Further, in series [2], the viability at 24 h, 10 µM was 117%.
Turning to `COc1cc(CNC(=O)CCCCCCC(C)C)ccc1O` [DIHYDROCAPSAICIN], in the series on NIH3T3 [1], the inhibition at 10 µM was 50%. In the series with NIH3T3 [4], the pIC50 is 4.69. Further, the viability at 24 h, 10 µM in series [2] came to 92.3%.
Regarding `CCCCCCCCCC(=O)NCc1ccc(OC)c(OC)c1`, the inhibition at 10 µM with NIH3T3 [1] was -5.71%. In series [2], the viability at 24 h, 10 µM was determined as 101%.
In the same order, the values of `O=C(CC/C=C/c1ccccc1)CCc1ccccc1` are 55.3% and -1.47%.
Turning to `CCCCC(=O)NCc1ccc(O)c(O)c1`, the inhibition at 10 µM with NIH3T3 [1] stood at 54.2%. Moreover, the viability at 24 h, 10 µM in series [2] was 123%.
In the same order, the values of `Oc1ccc(CCC(O)CC/C=C/c2ccccc2)cc1O` (configuration not stated) are 56.6% and 131%.
Regarding `CCCCCCCC(=O)NCc1ccc(OC(C)=O)c(OC(C)=O)c1`, in the series on NIH3T3 [1], the inhibition at 10 µM came out at 56.3%. Also, the viability at 24 h, 10 µM in series [2] came out at 151%.
With `COc1ccc(CCCCC(O)CCc2ccc(OC)c(O)c2)c(OC)c1` (configuration not stated), in the series with NIH3T3 [1], the inhibition at 10 µM was found to be 68.5%. Also, the pIC50 in the series with NIH3T3 [4] is 4.66. The viability at 24 h, 10 µM in series [2] is 114%.
For the molecule `CCCCCCCC(=O)NCc1ccc(O)c(O)c1`, the inhibition at 10 µM in the series on NIH3T3 [1] was found to be 58.1%. Also, the viability at 24 h, 10 µM in series [2] was 133%.
The like results for `CCCCCCCCC(=O)NCc1ccc(O)c(OC)c1` [NONIVAMIDE] were, in that order, 58.7% and 92%.
The like results for `CCCCC(=O)NCc1ccc(OC)c(OC)c1` were, in that order, -2.64% and 86%.
In the same order, the values of `Oc1ccc(/C=C/CCC(O)CCc2ccc(O)cc2)cc1` (configuration not stated) are 60.9% and 132%.
With `OC(CCCCc1ccccc1)CCc1ccccc1` (configuration not stated), the outcome in the series on L929 was Active. The inhibition at 10 µM in the series with NIH3T3 [1] worked out at 72.2%. Besides, the pIC50 in the series on NIH3T3 [4] was 5.80. For the same molecule, the viability at 24 h, 10 µM in series [2] is 74.1%.
With `COC(=O)c1ccc2c(c1)NC(=O)/C2=C(\Nc1ccc(N(C)C(=O)CN2CCN(C)CC2)cc1)c1ccccc1` [NINTEDANIB], in the series with NIH3T3 [3], the inhibition entry is “Active”. Besides, the inhibition at 10 µM in the series with NIH3T3 [1] came to 89.5%. The pIC50 in the series on NIH3T3 [4] is 6.57. Moreover, in series [2], the viability at 24 h, 10 µM was 20.5%.
The like results for `CCCCCCCCCC(=O)NCc1ccc(OC(C)=O)c(OC(C)=O)c1` were, in that order, “Active”, 68.9%, 5.58 and 141%.
For `COc1ccc(CNC(=O)CC(C)C)cc1OC`, the inhibition at 10 µM in the series on NIH3T3 [1] is -41.7%. Also, the viability at 24 h, 10 µM in series [2] worked out at 88.2%.
The like results for `COc1cc(CCC(O)CC/C=C/c2ccccc2)ccc1O` (configuration not stated) were, in that order, 43.7% and 103%.
Consider `CC(=O)Oc1ccc(CNC(=O)CCCCc2ccccc2)cc1OC(C)=O`, for which the inhibition entry with NIH3T3 [3] was “Active”. Besides, the inhibition at 10 µM in the series with NIH3T3 [1] amounted to 70.6%. In addition, the pIC50 with NIH3T3 [4] was 5.84. In addition, in series [2], the viability at 24 h, 10 µM came to 129%.
Consider `OC(/C=C/C=C/c1ccccc1)CCc1ccccc1` (configuration not stated), for which the inhibition at 10 µM with NIH3T3 [1] stood at 61.9%. Moreover, in series [2], the viability at 24 h, 10 µM turned out to be 119%.
The like results for `O=C(CCc1ccccc1)CC(O)CCc1ccccc1` (configuration not stated) were, in that order, 62.9% and 111%.
The like results for `CCCCCC(=O)NCc1ccc(O)c(O)c1` were, in that order, 60.2% and 118%.
The like results for `O=C(CCCCc1ccccc1)NCc1ccc(O)c(O)c1` were, in that order, 65.2% and 118%.
For `COc1ccc(CCC(=O)CC/C=C/c2ccccc2)cc1`, the inhibition at 10 µM with NIH3T3 [1] is 57.7%. In addition, the viability at 24 h, 10 µM in series [2] was determined as 38.8%.
The like results for `CCCCCC(=O)NCc1ccc(OC(C)=O)c(OC(C)=O)c1` were, in that order, 50.9% and 138%.
Consider `COc1ccc(CCC(/C=C/C=C/c2ccccc2)OC)cc1O` (configuration not stated), for which the inhibition at 10 µM in the series on NIH3T3 [1] was 63%. In addition, the viability at 24 h, 10 µM in series [2] is 93.2%.
The like results for `CC(=O)Oc1ccc(/C=C/C(=O)Cc2ccccc2)cc1OC(C)=O` were, in that order, 18.8% and 149%.
In the same order, the values of `COc1cc(/C=C/C(O)CC(=O)/C=C/c2ccc(O)cc2)ccc1O` (configuration not stated) are -41.6% and 88.9%.
The like results for `CC(C)CC(=O)NCc1ccc(O)c(O)c1` were, in that order, 10.4% and 115%.
With `CCCCCCCCC(=O)NCc1ccc(OC(C)=O)c(OC)c1`, the inhibition at 10 µM with NIH3T3 [1] is 56.4%. The viability at 24 h, 10 µM in series [2] worked out at 129%.
